These results are taken from US20100076072A1, “COMPOSITIONS AND METHODS OF VITAMIN E ADMINISTRATION” (NORTHWESTERN UNIVERSITY, priority 2008, published 2010).

In data set [1] the test system is endotoxin-stimulated neutrophil infiltration into the lung. The settings on record: other animal models; cited from earlier work.
In data set [2] the test system is OVA-challenged mice (experimental asthma). The data set can be described thus: OVA experimental asthma: lung tissue eosinophils (anti-major basic protein immunolabeling). The data set is classed as in vivo, mouse. The settings on record: daily s.c. 2 μg tocopherol days 13-20, day 21.
For data set [3] the test system is unchanged. In words: Airway hyperresponsiveness to methacholine, whole-body plethysmography (Penh). In kind it is in vivo, mouse. The settings on record: OVA-challenged BALB/c mice, methacholine dose curve, day 21. The procedure: Airway Hyperresponsiveness. Lung responsiveness was determined using methacholine as previously described. On day 21, the mice were analyzed for airway responsiveness by whole body plethysmology. The whole-body plethysmography on conscious, unrestrained mice was performed under continuous airflow conditions (Buxco, Troy, N.Y.). Continuous airflow was used to avoid the influence of conditioning on airway functions, causing aberrant measurements. Enhanced pause (Penh) values were calculated from the flow-derived whole-body plethysmography measurements done with continuous air flow. Penh is a unitless indicator of changes in airway resistance and correlates well with specific airway resistance. Baseline readings were averaged for 5 minutes. Saline or methacholine was nebulized into the airflow for 2-minute periods and the average Penh value calculated for this and the subsequent 8 minutes.
Mice were sensitized with intraperitoneal injection of OVA grade V (10 μg)/alum or saline/alum on days 0 and 7 (SEE FIG. 2). On days 13-20, these mice received daily subcutaneous injections (500) of 2 μg natural tocopherol/ethoxylated castor oil (33) or ethoxylated castor oil alone. This daily 2 μg of natural tocopherol is equivalent to the amount of tocopherol that mice consume from diets (4 g diet consumed/day×500 mg a tocopherol/kg diet) that are commonly used to elevate tissue tocopherols in mice. On days 16, 18, and 20 the mice were challenged with intranasal OVA fraction VI (150 μg) in saline or saline alone. On day 21, the mice were analyzed for airway responsiveness and then tissues were collected. Lung responsiveness was determined using methacholine and whole-body plethysmography as previously described. This method of measuring lung function has the advantage of analysis of larger numbers of animals, as compared to the few animals that can be analyzed using invasive measures of lung function. The whole-body plethysmography correlates well with airway function when performed under continuous flow conditions. […]

Another data set concerns lung. The settings on record: in vivo; cited from earlier work.
The test system of data set [4] is adhesion molecule expression. The settings on record: atherosclerosis models; cited from earlier work.
In data set [5] the test system is VCAM-1-dependent lymphocyte migration across mHEVa endothelial cells. In words: Transendothelial migration assay with physiological laminar flow (parallel plate flow chamber). In kind it is cell-based, mouse. The settings on record: endothelial cells pretreated overnight, washed; 15 minutes, 2 dynes/cm^2. As to the method: In vitro cell association and migration assays with laminar flow. The parallel plate flow chamber was used to examine migration under conditions of laminar flow. Endothelial cells were grown to confluence on slides and then the slide was placed in a parallel plate flow chamber. In vivo, in the absence of inflammation, the rapid fluid dynamics of the blood result in blood cells located midstream of the vascular flow. However, during inflammation, there is a change of fluid dynamics. […]
Therefore, spleen cells (3×10^6) were added to the flow chamber (35 cm^2) at 2 dynes/cm^2. […] To initiate spleen cell contact with the endothelial cells in vitro, the spleen cells were allowed to settle in the chamber as monitored by microscopy and then 2 dynes/cm^2 was applied for the 15 minute laminar flow assay. […] To quantify migrated spleen cells at 15 minutes, phase contrast microscopy was used to count migrated cells that are phase dark. Under laminar flow, spleen cell migration was detected at 15 minutes. The number of spleen cells that were associated but not migrated (phase light cells) at 15 minutes is low since in 15 minutes, the majority of non-migrating cells roll off the monolayer of endothelial cells as determined by microscopy. […]

Data set [6] in a line: Tocopherol levels in lung tissue and plasma (HPLC, electrochemical detector). The data set is classed as in vivo, mouse. The procedure: Body weight and tocopherol levels in these mice were examined. […] Lungs were perfused to remove the blood, homogenized in ethanol and extracted with hexane. Tocopherol concentrations were determined by HPLC with an electrochemical detector.

Data set [7] relates to VCAM-1-dependent spleen cell migration across mHEVa endothelial cells. In words: In vitro Transwell migration assay. In kind it is cell-based, mouse. The procedure:
In vitro Transwell migration assay. mHEVa cells were grown to confluence on Transwells with 12 μm pores (Costar Cambridge, Mass.). The mHEVc cell monolayers block nonspecific accumulation of red blood cells in the lower transwell chamber and block FITC-albumin diffusion. Spleen cell migration is stimulated by mHEV cell secretion of the chemokine MCP-1. The number of lymphocytes that migrate is linear from 0-24 hrs followed by a plateau. Spleen cells that migrate are greater than 95% lymphocytes and the percentage of cells that migrate is consistent with other in vitro models with endothelial cell lines or cytokine-activated microvascular endothelial cells.
In this transendothelial migration assay used, the migrated spleen cells are >95% lymphocytes and the B cells and T cells migrate in response to MCP-1. […]

Regarding `Cc1c(C)c2c(c(C)c1O)CC[C@@](C)(CCC[C@H](C)CCC[C@H](C)CCCC(C)C)O2` [α-tocopherol, d-α-tocopherol, reference compound], the “Endotoxin-stimulated neutrophil infiltration into the lung” value in data set [1] was “reduces”. The “Eosinophils in the lung tissue” value in data set [2] is given as “reduced”. The “Airway hyperresponsiveness (AHR), enhanced pause (Penh)” value in data set [3] is recorded as “completely ablated”. Further, in the data set with lung, the “High oxidation by ozone and smoke in the lung” value is given as “reduces”. Further, in data set [4], the Adhesion molecule expression result is “inhibit”. Moreover, the “VCAM-1-dependent lymphocyte migration under laminar flow” value in data set [5] is given as “inhibited”. The “Increase in α-tocopherol in lungs of α-tocopherol-treated mice” value in data set [6] (day 21) is given as “five-fold increase”. The “Lung tissue level of the other tocopherol (α vs γ)” value in data set [6] (mice, day 21) was “did not alter”. The “Lung tissue level of the administered tocopherol” value in data set [6] (mice, day 21, daily s.c. 2 μg tocopherol days 13-20) is given as “elevated levels”. Besides, in data set [7] (leukocytes pretreated, washed), the “Migration after pretreatment of leukocytes with tocopherol and washing” value is “no effect on migration”. In data set [7] (tocopherol left in culture, 24 hours after addition of spleen cells, 80 μM α / 5 μM γ), the “Lymphocyte migration in transwell migration assay” value was “inhibited lymphocyte migration”.
